What was measured:
Type in all cases: toxicity, cell-based
Fibroblast = assay: Incucyte cell viability with human fibroblast; conditions: 10 µM, compound concentration 10 uM
HEK-293T = assay: Incucyte cell viability with HEK293T; conditions: human, 10 µM, compound concentration 10 uM
U2OS = assay: Incucyte cell viability with U2OS; conditions: human, 10 µM, compound concentration 10 uM
[1] = 0 h, replicate number 1, timepoint 0 hours
[2] = 6 h, replicate number 1, timepoint 6 hours
[3] = 12 h, replicate number 1, timepoint 12 hours
[4] = 12 h, replicate number 2, timepoint 12 hours
[5] = 18 h, replicate number 1, timepoint 18 hours
[6] = 24 h, replicate number 1, timepoint 24 hours
[7] = 24 h, replicate number 2, timepoint 24 hours
[8] = 6 h, replicate number 2, timepoint 6 hours
[9] = 18 h, replicate number 2, timepoint 18 hours
[10] = 0 h, replicate number 2, timepoint 0 hours
Also: unitless GR value; below 1 slowed growth and below 0 cell loss.

SMILES	Growth Rate (Fibroblast; [1])	Growth Rate (Fibroblast; [2])	Growth Rate (Fibroblast; [3])	Growth Rate (Fibroblast; [4])	Growth Rate (Fibroblast; [5])	Growth Rate (Fibroblast; [6])	Growth Rate (Fibroblast; [7])	Growth Rate (HEK-293T; [2])	Growth Rate (HEK-293T; [3])	Growth Rate (HEK-293T; [5])	Growth Rate (HEK-293T; [6])	Growth Rate (U2OS; [4])	Growth Rate (U2OS; [9])	Growth Rate (Fibroblast; [10])	Growth Rate (Fibroblast; [8])	Growth Rate (U2OS; [10])	Growth Rate (U2OS; [2])	Growth Rate (U2OS; [5])	Growth Rate (U2OS; [1])	Growth Rate (U2OS; [3])	also measured
Cn1cc(C(=O)OCC2CCN(CCNS(C)(=O)=O)CC2)c2ccccc21	0.81	-0.25	0.1	0.4	0.33	0.43	0.82	0.81	0.43	0.29	0.35	0.95	0.89								Growth Rate (HEK-293T; [7]): 0.96; Growth Rate (U2OS; [8]): 0.45
COc1ccccc1N1CCN(C[C@@H](C(=O)NC(C)(C)C)c2ccccc2)CC1.Cl.Cl		0.54	0.69		1	0.57							0.92	0.48	0.96	-0.77	0.29	0.77			Growth Rate (HEK-293T; [1]): 0.89; Growth Rate (HEK-293T; [8]): 0.54; Growth Rate (HEK-293T; [4]): 0.79; Growth Rate (U2OS; [7]): 1
Cl.NCCc1c[nH]c2ccc(O)cc12 [SEROTONIN HYDROCHLORIDE]				1								0.97		0.19		0.12	0.46	0.67	0.29	0.38	Growth Rate (HEK-293T; [1]): 0.58; Growth Rate (HEK-293T; [10]): 0.43; Growth Rate (U2OS; [8]): 0.79; Growth Rate (U2OS; [6]): 0.62
O=c1ccc2ccc(OCCCCN3CCN(c4cccc5sccc45)CC3)cc2[nH]1 [BREXPIPRAZOLE]		-0.55	0.1	0.53	0.08	0.3	0.76	-0.63	-0.43	-0.32	-0.26				0.52	-0.19	0.98		0.42		Growth Rate (Fibroblast; [9]): 0.81
CC(C)Oc1ccc(-c2nc(-c3cccc4c3CC[C@@H]4NCCO)no2)cc1C#N [OZANIMOD]		0.57	0.12	-0.28	0.03	-0.09	-0.43	-0.7	-0.42	-0.32	-0.25	-0.05	0.01		0.42			0.41		0.37	Growth Rate (Fibroblast; [9]): -0.49; Growth Rate (HEK-293T; [8]): -0.68; Growth Rate (HEK-293T; [4]): -0.34; Growth Rate (HEK-293T; [9]): -0.35; Growth Rate (HEK-293T; [7]): -0.29; Growth Rate (U2OS; [8]): -0.16; Growth Rate (U2OS; [6]): 0.38; Growth Rate (U2OS; [7]): 0.04
COc1cccc2c1c(NS(=O)(=O)c1ccc(Cl)s1)nn2Cc1cccc(CNC(=O)C(C)(C)O)c1		0.17	0.41		0.35	0.53			0.98		0.38	0.98	0.83	0.35	0.5	-1			-0.39	0.99	Growth Rate (HEK-293T; [1]): 0.52; Growth Rate (HEK-293T; [8]): 0.95; Growth Rate (HEK-293T; [4]): 0.47; Growth Rate (U2OS; [7]): 0.89
CCCCC[C@H](O)/C=C/[C@H]1CCC(=O)[C@@H]1CCCCCCC(=O)O	-0.34					0.96		0.64	0.56	0.7	0.77			-0.08			0.51	0.5	0.47	0.66	Growth Rate (HEK-293T; [1]): 0.81; Growth Rate (HEK-293T; [10]): -0.24; Growth Rate (HEK-293T; [8]): 0.48; Growth Rate (HEK-293T; [4]): 0.7; Growth Rate (HEK-293T; [9]): 0.73; Growth Rate (HEK-293T; [7]): 0.67; Growth Rate (U2OS; [6]): 0.96
C[C@H](N)COC(=O)[C@@H](CCCCN)NC(=O)Cc1c(-c2ccc3ccccc3c2)[nH]c2c1ccc1ccccc12	0.29	0.67			0.71	0.64			0.97			0.83	0.76	0.37			0.46	0.73		0.89	Growth Rate (HEK-293T; [10]): 0.88
NC(N)=Nc1nc(CSCCC(N)=NS(N)(=O)=O)cs1 [FAMOTIDINE]	0.55		0.41	0.17			0.89	0.72	0.65		0.96			0.42	0.22	-1	0.18				Growth Rate (Fibroblast; [9]): 0.4; Growth Rate (HEK-293T; [8]): 0.45; Growth Rate (HEK-293T; [9]): 0.89
Cc1sc2c(c1C)C(c1ccc(Cl)cc1)=N[C@@H](CC(=O)NCCCCCCCCNC(=O)COc1cccc3c1C(=O)N(C1CCC(=O)NC1=O)C3=O)c1nnc(C)n1-2 (stereo partly drawn)	0.46	-0.54	-0.48	-0.2	-0.47	-0.37	-0.03	0.68	0.13	0.02	0.01	0.65	0.72		-0.38		0.38	0.5	-0.31	0.7	Growth Rate (Fibroblast; [9]): -0.01; Growth Rate (HEK-293T; [10]): 0.68; Growth Rate (HEK-293T; [4]): 0.04; Growth Rate (HEK-293T; [9]): -0.02; Growth Rate (HEK-293T; [7]): -0.06; Growth Rate (U2OS; [6]): 0.4; Growth Rate (U2OS; [7]): 0.7
Cc1nc[nH]c1CCN.Cl	0.7			0.83			0.86		0.91	0.92	0.81				0.14	-1		0.91	-0.24		Growth Rate (Fibroblast; [9]): 0.58; Growth Rate (HEK-293T; [1]): 0.42; Growth Rate (HEK-293T; [10]): 0.64

From ChEMBL document CHEMBL5058564, “EUbOPEN Chemogenomics Library 2 (Incucyte)” (2022)
